What was measured:
[1] = target: T1, MKK7 (Homo sapiens, UniProt O14733); assay: KINOMEscan competition binding assay, selectivity MKK7 versus MKK4; conditions: Test conc. 0.1 μM; ratio of percent of control; N/E* per footnote
T1 sequence (O14733 1-419): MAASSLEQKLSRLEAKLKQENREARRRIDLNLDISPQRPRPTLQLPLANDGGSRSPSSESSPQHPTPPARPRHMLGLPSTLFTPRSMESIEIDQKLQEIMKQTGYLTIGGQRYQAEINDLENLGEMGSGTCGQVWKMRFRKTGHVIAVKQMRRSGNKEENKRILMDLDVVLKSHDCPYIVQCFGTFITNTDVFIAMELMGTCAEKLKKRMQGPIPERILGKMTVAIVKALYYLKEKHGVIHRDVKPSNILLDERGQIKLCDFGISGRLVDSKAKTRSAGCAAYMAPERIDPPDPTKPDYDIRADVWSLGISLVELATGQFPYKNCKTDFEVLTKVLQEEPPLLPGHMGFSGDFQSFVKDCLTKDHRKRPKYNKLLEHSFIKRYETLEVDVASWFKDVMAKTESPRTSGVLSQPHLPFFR
Procedure: (§1) For investigation of the affinity to MKK4, MKK7 and JNK1, the kinases were produced in HEK-293 cells and subsequently tagged with DNA for qPCR detection. […] The liganded beads were blocked with excess biotin and washed with blocking buffer (SEABLOCK™ (Pierce), 1% BSA, 0.05% TWEEN®20, 1 mM DTT) to remove unbound ligand and to reduce nonspecific binding. […] All reactions were performed in polystyrene 96-well plates in a final volume of 0.135 mL. […] The kinase concentration in the eluates was measured by qPCR.

[2] = target: BRaf (Homo sapiens, UniProt P15056); assay: KINOMEscan competition binding assay, selectivity BRaf versus MKK4; conditions: Test conc. 0.1 μM; ratio of percent of control; N/E* per footnote
Chain of BRaf (P15056 whole entry): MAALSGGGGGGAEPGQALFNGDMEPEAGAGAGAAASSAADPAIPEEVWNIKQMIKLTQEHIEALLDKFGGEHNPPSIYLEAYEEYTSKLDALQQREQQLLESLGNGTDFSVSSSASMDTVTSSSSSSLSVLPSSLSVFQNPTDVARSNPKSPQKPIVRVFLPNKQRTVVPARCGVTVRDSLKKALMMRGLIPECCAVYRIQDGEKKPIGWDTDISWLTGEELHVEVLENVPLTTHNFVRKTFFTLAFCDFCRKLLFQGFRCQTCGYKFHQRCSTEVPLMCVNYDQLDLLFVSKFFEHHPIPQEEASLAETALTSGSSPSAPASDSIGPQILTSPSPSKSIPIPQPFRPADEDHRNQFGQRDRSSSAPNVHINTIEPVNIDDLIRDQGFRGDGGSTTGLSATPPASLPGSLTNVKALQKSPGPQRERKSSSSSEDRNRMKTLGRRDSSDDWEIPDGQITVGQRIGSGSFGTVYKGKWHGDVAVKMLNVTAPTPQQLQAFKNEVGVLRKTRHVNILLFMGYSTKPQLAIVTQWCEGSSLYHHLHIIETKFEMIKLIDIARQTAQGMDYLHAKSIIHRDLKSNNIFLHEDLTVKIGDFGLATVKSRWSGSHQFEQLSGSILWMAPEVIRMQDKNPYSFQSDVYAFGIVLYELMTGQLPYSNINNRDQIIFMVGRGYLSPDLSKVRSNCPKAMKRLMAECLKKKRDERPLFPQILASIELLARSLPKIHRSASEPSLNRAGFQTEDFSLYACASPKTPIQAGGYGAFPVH
Procedure: The assay was performed by combining three components: DNA-tagged kinase; immobilized ligand; and a test compound. The ability of the test compound to compete with the immobilized ligand was measured via quantitative PCR of the DNA tag. The technology is described in detail in Fabian, M. A. et al. A small molecule-kinase interaction map for clinical kinase inhibitors. Nat. […] Nat.
The test compounds were provided as 10 mM stock solutions. The test solutions at indicated final concentrations were prepared at DiscoverX.

[3] = target: JNK1 (Homo sapiens, UniProt P45983); assay: KINOMEscan competition binding assay, selectivity JNK1 versus MKK4; conditions: ratio of percent of control
Chain of JNK1 (P45983 1-384 isoform P45983-2): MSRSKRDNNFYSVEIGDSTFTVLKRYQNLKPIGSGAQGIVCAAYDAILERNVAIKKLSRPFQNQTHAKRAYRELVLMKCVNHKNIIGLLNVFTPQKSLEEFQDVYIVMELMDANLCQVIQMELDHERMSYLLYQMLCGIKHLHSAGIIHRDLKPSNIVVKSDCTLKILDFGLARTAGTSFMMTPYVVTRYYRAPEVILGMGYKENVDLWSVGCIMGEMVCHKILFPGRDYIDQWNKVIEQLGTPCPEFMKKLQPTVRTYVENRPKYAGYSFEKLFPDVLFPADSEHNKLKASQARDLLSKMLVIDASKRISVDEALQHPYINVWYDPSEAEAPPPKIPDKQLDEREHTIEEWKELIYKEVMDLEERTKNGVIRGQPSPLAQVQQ
Procedure: as §1

[4] = target: T2, MKK4 (Homo sapiens, UniProt P45985); assay: KINOMEscan competition binding assay, MKK4; conditions: read-out: Potency MKK4 (derived from % of control values, PoC)
T2 sequence (P45985 84-399): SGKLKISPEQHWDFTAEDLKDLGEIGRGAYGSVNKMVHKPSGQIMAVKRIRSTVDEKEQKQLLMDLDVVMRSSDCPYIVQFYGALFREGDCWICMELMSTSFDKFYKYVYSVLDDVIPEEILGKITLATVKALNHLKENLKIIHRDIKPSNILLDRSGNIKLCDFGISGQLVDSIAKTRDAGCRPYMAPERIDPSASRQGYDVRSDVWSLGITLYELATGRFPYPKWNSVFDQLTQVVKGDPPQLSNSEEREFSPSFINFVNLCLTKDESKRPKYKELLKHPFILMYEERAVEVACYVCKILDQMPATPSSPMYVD
Procedure: as §1

[5] = Test conc 0.1 μM, N/E* = PoC for JNK1 = 100

Compound	Selectivity MKK7/MKK4 [1]	Selectivity BRaf/MKK4 [2]	Selectivity JNK1/MKK4 ([3]; Test conc 10 μM)	remaining binding at 0.1 µM [4]	Selectivity JNK1/MKK4 [3, 5]
CCCS(=O)(=O)Nc1ccc(F)c(C(=O)c2c[nH]c3ncc(-c4ccc(OC)cc4)cc23)c1F [Example 3, N-(2,4-Difluoro-3-(5-(4-methoxyphenyl)-1H-pyrrolo[2,3-b]pyridine-3-carbonyl)phenyl)propane-1-sulfonamide]	10	1.0	>400	10 to 30%	
CCCS(=O)(=O)Nc1ccc(F)c(C(=O)c2c[nH]c3ncc(-c4ccc(C#N)cc4)cc23)c1F [Example 4, N-(3-(5-(4-Cyanophenyl)-1H-pyrrolo[2,3-b]pyridine-3-carbonyl)-2,4-difluorophenyl)propane-1-sulfonamide]	25	2.8	>400	10 to 30%	
CCCS(=O)(=O)Nc1ccc(F)c(C(=O)c2c[nH]c3ncc(-c4cnc5ccccc5c4)cc23)c1F [Example 6, N-(2,4-Difluoro-3-(5-(quinolin-3-yl)-1H-pyrrolo[2,3-b]pyridin-3-carbonyl)phenyl)propane-1-sulfonamide]	5.6	0.1	>100	> 30%	
CCCS(=O)(=O)Nc1ccc(F)c(C(=O)c2c[nH]c3ncc(-c4ccc(SC)cc4)cc23)c1F [Example 8, N-(2,4-Difluoro-3-(5-(4-(methylthio)phenyl)-1H-pyrrolo[2,3-b]pyridine-3-carbonyl)phenyl)propane-1-sulfonamide]	7.6	0.5	>100	> 30%	
CCCS(=O)(=O)Nc1ccc(F)c(C(=O)c2c[nH]c3ncc(-c4ccccc4O)cc23)c1F [Example 9, N-(2,4-Difluoro-3-(5-(2-hydroxyphenyl)-1H-pyrrolo[2,3-b]pyridine-3-carbonyl)phenyl)propane-1-sulfonamide]	6.7	4.2	>10	> 30%	
CCCS(=O)(=O)Nc1ccc(F)c(C(=O)c2c[nH]c3ncc(-c4ccc(F)cc4)cc23)c1F [Example 11, N-(2,4-Difluoro-3-(5-(4-fluorophenyl)-1H-pyrrolo[2,3-b]pyridine-3-carbonyl)phenyl)propane-1-sulfonamide]	25	6.3	>100	10 to 30%	
CCCS(=O)(=O)Nc1ccc(F)c(C(=O)c2c[nH]c3ncc(-c4cccc(C#N)c4)cc23)c1F [Example 14, N-(3-(5-(3-Cyanophenyl)-1H-pyrrolo[2,3-b]pyridine-3-carbonyl)-2,4-difluorophenyl)propane-1-sulfonamide]	10	1.5	23	10 to 30%	
CCCS(=O)(=O)Nc1ccc(F)c(C(=O)c2c[nH]c3ncc(-c4ccc5c(c4)OCCO5)cc23)c1F [Example 15, N-(3-(5-(2,3-Dihydrobenzo[b][1,4]dioxin-6-yl)-1H-pyrrolo[2,3-b]pyridine-3-carbonyl)-2,4-difluorophenyl)propane-1-sulfonamide]	30	2.0	>100	10 to 30%	
CCCS(=O)(=O)Nc1ccc(F)c(C(=O)c2c[nH]c3ncc(-c4ccc(F)c(F)c4)cc23)c1F [Example 16, N-(3-(5-(3,4-Difluorophenyl)-1H-pyrrolo[2,3-b]pyridine-3-carbonyl)-2,4-difluorophenyl)propane-1-sulfonamide]	8	2.5	>100	> 30%	
CCCS(=O)(=O)Nc1ccc(F)c(C(=O)c2c[nH]c3ncc(-c4cccc5ccccc45)cc23)c1F [Example 18, N-(2,4-Difluoro-3-(5-(naphthalen-1-yl)-1H-pyrrolo[2,3-b]pyridine-3-carbonyl)phenyl)propane-1-sulfonamide]	3	1.6	40	> 30%	
CCCS(=O)(=O)Nc1cc(C)cc(C(=O)c2c[nH]c3ncc(-c4ccc(Cl)cc4)cc23)c1 [Example 24, N-(3-(5-(4-Chlorophenyl)-1H-pyrrolo[2,3-b]pyridine-3-carbonyl)-5-methylphenyl)propane-1-sulfonamide]	1.0	0.9		> 30%	N/E* (PoC for JNK1 = 100)
CCCS(=O)(=O)Nc1cccc(C(=O)c2c[nH]c3ncc(-c4ccc(Cl)cc4)cc23)c1C [Example 25, N-(3-(5-(4-Chlorophenyl)-1H-pyrrolo[2,3-b]pyridine-3-carbonyl)-2-methylphenyl)propane-1-sulfonamide]	1.0	1.0		> 30%	N/E* (PoC for JNK1 = 100)
CCCS(=O)(=O)Nc1ccc(F)c(C(=O)c2c[nH]c3ncc(-c4ccc(Cl)cc4Cl)cc23)c1F [Example 41, N-(3-(5-(2,4-Dichlorophenyl)-1H-pyrrolo[2,3-b]pyridine-3-carbonyl)-2,4-difluorophenyl)propane-1-sulfonamide]	3.3	3.3		> 30%	N/E* (PoC for JNK1 = 100)
CCCS(=O)(=O)Nc1ccc(F)c(C(=O)c2c[nH]c3ncc(-c4ccc(Cl)cc4F)cc23)c1F [Example 49]	N/E* (PoC for JNK1 = 100)	8.9		< 10%	7.1
CCCCS(=O)(=O)Nc1cccc(C(=O)c2c[nH]c3ncc(-c4ccc(F)cc4C)cc23)c1F [Example 51]	N/E* (PoC for JNK1 = 100)	N/E* (PoC for JNK1 = 100)		< 10%	N/E* (PoC for JNK1 = 100)
CCCS(=O)(=O)Nc1ccc(F)c(C(=O)c2c[nH]c3ncc(-c4ccc(O)cc4Cl)cc23)c1F [Example 94, N-(3-(5-(2-chloro-4-hydroxy-phenyl)-1H-pyrrolo[2,3-b]pyridine-3-carbonyl)-2,4-difluoro-phenyl)propane-1-sulfonamide]	22	20		< 10%	25
CCCS(=O)(=O)Nc1ccc(F)c(C(=O)c2c[nH]c3ncc(-c4ccc(OCC)cc4Cl)cc23)c1F [Example 95, N-(3-(5-(2-chloro-4-ethoxy-phenyl)-1H-pyrrolo[2,3-b]pyridine-3-carbonyl)-2,4-difluorophenyl)-propane-1-sulfonamide]	N/E* (PoC for JNK1 = 100)	6.5		< 10%	8.6
CCCS(=O)(=O)Nc1ccc(F)c(C(=O)c2c[nH]c3ncc(-c4ccc(OC(C)C)cc4Cl)cc23)c1F [Example 96, N-(3-(5-(2-chloro-4-isopropoxy-phenyl)-1H-pyrrolo[2,3-b]pyridine-3-carbonyl)-2,4-difluorophenyl)-propane-1-sulfonamide]	N/E* (PoC for JNK1 = 100)	8.0		10 to 30%	8.7

From US11040027B2, “Protein kinase inhibitors for promoting liver regeneration or reducing or preventing hepatocyte death” (HEPAREGENIX GMBH, priority 2017, dated 2021)
